Results reported in patent publication US11667638B2, “4-substitued cytisine analogues” (The University of Bristol, priority 2016, dated 2023).
Read-outs that look alike come from different tables or passages of the source.

Legend:
α3β4 nAChRs = α3β4 nAChRs (Homo sapiens (Human), UniProt P30926+P32297); test: Maximal gating efficacy on α3β4 nAChRs in Xenopus oocytes, two electrode voltage clamp; assay type: cell-based; details: maximal current relative to 1 mM ACh
Method: (§1) Compounds of the invention were tested for effects on the function of human α4β2, α3β4 and α7 nicotinic acetylcholine receptors (nAChRs) expressed heterologously in Xenopus oocytes. […] Expression in oocytes was obtained as follows: pCI (Promega, UK) plasmid containing human α4, β2, β4 or α7 complementary DNA were injected as previously described (Moroni et al., 2006). To express (α4)3(β2)2 nACh receptors, a mixture of 10α4:1β2 cDNAs was injected into the nucleus of oocytes, whereas for (α4)2(β2)3 receptors the cDNA ratio injected was 1α4:10β2.
(§2) Functional studies: Recordings were performed manually using a Geneclamp amplifier (Molecular Devices, USA) or using an automated HiClamp system. In both cases the oocytes were impaled with two electrodes filled with 3 M KCl and the cells were held at −60 mV throughout the experiments.
(§3) Oocyte isolation and two-electrode voltage-clamp recordings on oocytes were carried out as previously described (Moroni et al., 2006; Carbone et al., 2009). […] A minimum interval of 5 min was allowed between agonist applications to ensure reproducible recordings. Oocytes were exposed to increasing concentrations of the compounds until no further increases in the response amplitude were obtained. This concentration was taken as the concentration that causes maximal responses on the receptors tested. The data summarised in Tables 1-4 were obtained from at least 5 experiments carried out on oocytes obtained from at least three different donors.
Maximal gating efficacy of the compounds on α3β4 nAChRs: The concentration of the compounds causing maximal activation of α3β4 nAChRs expressed heterologously in Xenopus oocytes was determined using two electrode voltage clamping.

(α4)2(β2)3 nAChRs = (α4)2(β2)3 nAChRs (Homo sapiens (Human), UniProt P17787+P43681); test: Maximal gating efficacy on (α4)2(β2)3 nAChRs in Xenopus oocytes, two electrode voltage clamp; assay type: cell-based
(α4)2(β2)3 nAChRs, sequence (P43681 29-627): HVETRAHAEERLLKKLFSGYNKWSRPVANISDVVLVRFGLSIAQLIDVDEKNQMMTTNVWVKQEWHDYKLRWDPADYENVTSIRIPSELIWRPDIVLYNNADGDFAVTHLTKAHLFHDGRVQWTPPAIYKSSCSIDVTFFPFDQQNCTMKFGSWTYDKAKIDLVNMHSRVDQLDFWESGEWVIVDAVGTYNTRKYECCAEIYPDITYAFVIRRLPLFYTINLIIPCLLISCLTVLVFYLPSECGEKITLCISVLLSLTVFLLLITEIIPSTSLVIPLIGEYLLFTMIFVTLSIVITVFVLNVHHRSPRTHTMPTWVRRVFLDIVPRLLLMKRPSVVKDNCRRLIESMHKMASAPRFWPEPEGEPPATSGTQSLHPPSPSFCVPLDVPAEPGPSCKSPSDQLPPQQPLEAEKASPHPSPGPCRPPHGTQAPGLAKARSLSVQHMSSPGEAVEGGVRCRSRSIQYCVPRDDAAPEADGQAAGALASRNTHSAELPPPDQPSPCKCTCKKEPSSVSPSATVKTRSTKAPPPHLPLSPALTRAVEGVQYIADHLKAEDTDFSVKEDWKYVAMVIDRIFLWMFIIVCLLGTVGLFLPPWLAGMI
(α4)2(β2)3 nAChRs, sequence (P17787 26-502): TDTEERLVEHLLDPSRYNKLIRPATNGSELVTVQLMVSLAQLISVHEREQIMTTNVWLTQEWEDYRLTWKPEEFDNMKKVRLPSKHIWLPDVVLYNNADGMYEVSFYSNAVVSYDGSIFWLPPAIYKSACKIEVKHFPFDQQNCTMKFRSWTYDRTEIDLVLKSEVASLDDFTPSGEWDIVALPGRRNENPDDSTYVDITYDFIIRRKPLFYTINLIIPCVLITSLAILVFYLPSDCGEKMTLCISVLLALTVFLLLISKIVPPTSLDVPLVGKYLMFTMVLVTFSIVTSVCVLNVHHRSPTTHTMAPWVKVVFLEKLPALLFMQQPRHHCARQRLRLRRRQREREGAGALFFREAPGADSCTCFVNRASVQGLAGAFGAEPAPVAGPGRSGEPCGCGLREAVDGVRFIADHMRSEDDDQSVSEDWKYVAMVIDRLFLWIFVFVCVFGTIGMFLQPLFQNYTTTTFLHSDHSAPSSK
Method: as §1, §2, §3
Maximal gating efficacy of compounds on (α4)2(β2)3 receptors (high sensitivity receptors): The concentration of the compounds causing maximal activation of the (α4)2(β2)3 nAChRs expressed heterologously in Xenopus oocytes was determined using two electrode voltage clamping.

α7 nAChRs = α7 nAChRs (Homo sapiens (Human), UniProt P36544); assay type: cell-based; details: compounds at 100 μM, relative to 1 mM ACh
α7 nAChRs, sequence (P36544 23-502): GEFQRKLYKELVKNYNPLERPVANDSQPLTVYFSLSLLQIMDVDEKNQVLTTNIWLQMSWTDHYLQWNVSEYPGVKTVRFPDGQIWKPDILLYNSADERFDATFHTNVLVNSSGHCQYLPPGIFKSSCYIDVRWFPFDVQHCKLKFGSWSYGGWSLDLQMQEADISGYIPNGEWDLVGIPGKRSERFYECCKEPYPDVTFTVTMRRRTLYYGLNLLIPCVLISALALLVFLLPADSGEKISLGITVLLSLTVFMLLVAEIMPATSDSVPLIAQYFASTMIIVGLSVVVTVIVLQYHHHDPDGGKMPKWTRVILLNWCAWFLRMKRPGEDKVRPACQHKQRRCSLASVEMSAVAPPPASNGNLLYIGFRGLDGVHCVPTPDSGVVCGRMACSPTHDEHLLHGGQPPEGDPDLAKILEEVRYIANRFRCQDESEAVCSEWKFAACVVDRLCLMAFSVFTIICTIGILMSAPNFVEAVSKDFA
Method: as §1, §2, §3

(α4)3(β2)2 nAChRs = (α4)3(β2)2 nAChRs (Homo sapiens (Human), UniProt P17787+P43681); test: Maximal gating efficacy on (α4)3(β2)2 nAChRs in Xenopus oocytes, two electrode voltage clamp; assay type: cell-based
(α4)3(β2)2 nAChRs, sequence (P43681 29-627): as the sequence (P43681 29-627) above
(α4)3(β2)2 nAChRs, sequence (P17787 26-502): as the sequence (P17787 26-502) above
Method: as §1, §2, §3
Maximal gating efficacy of the compounds: The concentration of the compounds of the invention causing maximal activation of the (α4)3(β2)2 nAChRs expressed heterologously in Xenopus oocytes was determined using two electrode voltage clamping.

α4β2 nAChR = α4β2 nAChR (Homo sapiens (Human), UniProt P17787+P43681); assay type: binding; details: ratio of Ki values
α4β2 nAChR, sequence (P43681 29-627 limits assumed): as the sequence (P43681 29-627) above
α4β2 nAChR, sequence (P17787 26-502 limits assumed): as the sequence (P17787 26-502) above
Method: HEK 293 cells were grown in Dulbecco's modified Eagle medium supplemented with 10% fetal bovine serum, 1% L-Glutamine, 100 units/ml penicillin G, and 100 μg/streptomycin in a humidified atmosphere containing 10% CO2. The cDNAs encoding α3 and β4 or α4 and β2 (were transfected into the HEK 293 cells at 30% confluency). The cell transfections were carried out in 100 mm Petri dishes using 30 μL of JetPEI™ (Polypus, France) (1 mg/ml, pH 7.2) and 3 μg of each cDNA. After 24 h transfection, the cells were collected, washed with PBS by centrifugation, and used for binding analysis.
[^3H]-epibatidine saturation binding experiments to HEK transfected α3β4 or α4β2 receptors were performed by means of overnight incubation at 4° C. at concentrations ranging from 0.005 to 1 nM in a buffer containing 50 mM Tris-HCl, pH 7, 150 mM NaCl, 5 mM KCl, 1 mM MgCl2, 2.5 mM CaCl2 and 2 mg/ml BSA, in the presence (aspecific binding) or absence (total binding) of 100 nM cold epibatidine. Specific ligand binding was defined as total binding minus the binding in the presence of 100 nM cold epibatidine.
After incubation, the membranes of HEK cells transfected with α4β2* or α3β4 subtypes were washed by filtration on GFC filters with ice-cold PBS. The GFC filters were pre-soaked in polyethylenimine and filtered through an harvester apparatus. [^3H]-epibatidine binding was determined by means of liquid scintillation counting in a beta counter.
The ligand binding data were analyzed by means of nonlinear regression using Prism version 5 (GraphPad Software, Inc., La Jolla, Calif.). The Ki values were calculated from the experimental IC50 values using the Cheng-Prusoff equation for a single population of competitive sites: Ki=IC50/[1+(L/Kd)], where L is the concentration of radioligand used in each experiment and the Kd values were determined by saturation binding experiment. All of the assays were performed in duplicate and repeated at least two-three times.

[1] = (α4)2(β2)3, high sensitivity receptors, maximal current relative to 1 mM ACh
[2] = (α4)3(β2)2, low sensitivity stoichiometry, maximal current relative to 1 mM ACh

α3β4 nAChRs, sequence (P32297 32-505): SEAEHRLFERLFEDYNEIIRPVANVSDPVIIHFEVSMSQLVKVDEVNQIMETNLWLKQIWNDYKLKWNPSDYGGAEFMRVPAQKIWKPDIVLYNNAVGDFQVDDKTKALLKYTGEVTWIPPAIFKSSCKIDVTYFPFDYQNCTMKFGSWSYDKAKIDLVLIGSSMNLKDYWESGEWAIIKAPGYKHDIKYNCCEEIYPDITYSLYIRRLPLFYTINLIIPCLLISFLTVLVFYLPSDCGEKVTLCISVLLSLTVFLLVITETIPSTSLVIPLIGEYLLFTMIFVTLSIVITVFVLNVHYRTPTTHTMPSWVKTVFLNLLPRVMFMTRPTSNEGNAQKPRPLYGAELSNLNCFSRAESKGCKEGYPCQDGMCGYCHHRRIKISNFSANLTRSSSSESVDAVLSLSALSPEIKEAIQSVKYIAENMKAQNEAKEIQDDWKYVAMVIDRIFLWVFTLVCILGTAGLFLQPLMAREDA
α3β4 nAChRs, sequence (P30926 22-498): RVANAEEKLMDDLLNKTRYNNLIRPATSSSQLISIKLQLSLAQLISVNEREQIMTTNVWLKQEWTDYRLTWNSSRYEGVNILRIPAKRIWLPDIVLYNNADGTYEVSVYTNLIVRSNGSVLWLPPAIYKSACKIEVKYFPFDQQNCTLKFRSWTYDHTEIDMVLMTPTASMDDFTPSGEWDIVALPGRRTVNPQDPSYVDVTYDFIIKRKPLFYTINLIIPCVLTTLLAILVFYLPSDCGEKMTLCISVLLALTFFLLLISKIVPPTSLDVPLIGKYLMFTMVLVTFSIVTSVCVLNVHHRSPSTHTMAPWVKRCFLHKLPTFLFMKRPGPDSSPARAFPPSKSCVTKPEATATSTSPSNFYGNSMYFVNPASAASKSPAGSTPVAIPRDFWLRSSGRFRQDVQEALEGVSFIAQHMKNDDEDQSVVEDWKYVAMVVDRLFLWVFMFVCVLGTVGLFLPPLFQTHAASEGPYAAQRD

Row | Compound | Relative efficacy (ACh) (α3β4 nAChRs) | Relative efficacy (ACh) ((α4)2(β2)3 nAChRs; [1]) | Relative efficacy (ACh) (α7 nAChRs) | Relative efficacy (ACh) ((α4)3(β2)2 nAChRs; [2]) | Ratio α3β4/α4β2 (α4β2 nAChR) | Relative efficacy (ACh) ((α4)2(β2)3 nAChRs) | Relative efficacy (ACh) ((α4)3(β2)2 nAChRs)
1 | O=c1cc(O)cc2n1CC1CNC[C@@H]2C1 (single isomer, unassigned; (+)) [Compound 67, (+)4-Hydroxycytisine] | 0.047 ± 0.036 | 0.005 ± 0.0001 | No response at 100 μM | 0.07 ± 0.009 | 397.8 |  | 
2 | Cc1ccc(-c2cc3n(c(=O)c2)CC2CNC[C@@H]3C2)cc1 (single isomer, unassigned; (+)) [Compound 73, (+)4-p-Tolylcytisine] | 0.076 ± 0.093 |  | 0.0027 ± 0.0021 |  | 161.7 | 0.030 ± 0.013 | 0.017 ± 0.019
3 | CC(=O)Nc1cc2n(c(=O)c1)CC1CNC[C@@H]2C1.Cl (single isomer, unassigned; (+)) [Compound 94, (+)4-(N-acetylamino)cytisine] | 0.055 ± 0.047 | 0.001 ± 0.0006 | 0.0001 ± 0.00001 | 0.153 ± 0.006 | 751.0 |  | 
4 | O=c1cc(Cl)cc2n1CC1CNC[C@@H]2C1 (single isomer, unassigned; (-)) [Compound 60, (−)4-Chlorocytisine] | 0.133 ± 0.017 | 0.01 ± 0.007 | 0.38 ± 0.09 | 0.110 ± 0.08 | 328.6 |  | 
5 | O=c1cc(Br)cc2n1CC1CNC[C@@H]2C1 (single isomer, unassigned; (-)) [Compound 62, (−)4-Bromocytisine] | 0.184 ± 0.046 | 0.009 ± 0.0001 | 0.28 ± 0.01 | 0.057 ± 0.007 | 303.4 |  | 
6 | COc1cc2n(c(=O)c1)CC1CNC[C@@H]2C1 (single isomer, unassigned; (-)) [Compound 69, (−)4-Methoxycytisine] | 0.044 ± 0.059 | 0.009 ± 0.0008 | 0.061 ± 0.09 | 0.071 ± 0.009 | 206.1 |  | 
7 | N#Cc1cc2n(c(=O)c1)CC1CNC[C@@H]2C1 (single isomer, unassigned; (-)) [Compound 140, (−)4-Cyanocytisine] | 0.172 ± 0.064 | 0.026 ± 0.036 |  | 0.050 ± 0.027 | 199.5 |  | 
8 | CC(=O)NCc1cc2n(c(=O)c1)CC1CNC[C@@H]2C1.Cl (single isomer, unassigned; (-)) [Compound 148] | 0.034 ± 0.038 | 0.015 ± 0.021 |  | 0.041 ± 0.057 | 204.8 |  | 
9 | Cl.O=c1c(C(F)(F)F)c(Br)cc2n1CC1CNC[C@@H]2C1 (single isomer, unassigned; (-)) [Compound 162, (−)3-(Trifluoromethyl)-4-bromocytisine] | 0.250 ± 0.077 | 0.042 ± 0.060 |  | 0.072 ± 0.026 | 136.4 |  | 
10 | CN(Cc1cc2n(c(=O)c1)CC1CNC[C@@H]2C1)Cc1cc2n(c(=O)c1)CC1CNC[C@@H]2C1 (stereo in doubt) [Compound 156, Methylamino bis(cytisine) derivative] | 0.012 ± 0.007 | No response |  | 0.052 ± 0.007 | 207.3 |  | 
11 | c1cnc2cc3c(cc2n1)[C@@H]1CNC[C@H]3C1 [Varenicline, reference compound] | 0.51 ± 0.09 | 0.14 ± 0.03 | 0.96 ± 0.03 | 0.40 ± 0.09 |  |  | 
